From patent US20120295965A1, “FUSED THIOPHENES AS DUAL INHIBITORS OF EGFR/VEGFR AND THEIR USE IN THE TREATMENT OF CANCER” (priority 2009, published 2012)

How the values were obtained:
[1] = tested on: EGF response in A431 cells; experiment: Epic label-free DMR biosensor cellular assay, EGF marker in A431; assay type: cell-based, human
Protocol: (§1) All cell lines were obtained from American Type Cell Culture (Manassas, Va.). The cell culture medium was as follows: (1) Dulbecco's modified Eagle's medium (DMEM) supplemented with 10% fetal bovine serum (FBS), 4.5 g/liter glucose, 2 mM glutamine, and antibiotics for human epidermoid carcinoma A431; and (2) McCoy's 5a Medium Modified supplemented with 10% FBS, 4.5 g/liter glucose, 2 mM glutamine, and antibiotics for human colorectal adenocarcinoma HT29.
(§2) Cells were typically grown using ˜1 to 2×10^4 cells per well at passage 3 to 15 suspended in 50 μl of the corresponding culture medium in the biosensor microplate, and were cultured at 37° C. under air/5% CO2 for ˜1 day. Except for A431 which underwent one day culture followed by one starvation in serum free medium, all other cells were directly assayed without starvation. The confluency for all cells at the time of assays was ˜95% to 100%.
(§3) Epic® beta version wavelength interrogation system (Corning Inc., Corning, N.Y.) was used for whole cell sensing. This system consists of a temperature-control unit, an optical detection unit, and an on-board liquid handling unit with robotics. The detection unit is centered on integrated fiber optics, and enables kinetic measures of cellular responses with a time interval of ˜15 sec.
(§4) To study the influence of molecules on a marker-induced response, a second stimulation with the marker at a fixed dose (typically at EC80 or EC100) was applied. The resonant wavelengths of all biosensors in the microplate were normalized again to establish a second baseline, right before the second stimulation. The two stimulations were usually separated by ˜1 hr.
(§5) All studies were carried out at a controlled temperature (28° C.). At least two independent sets of experiments, each with at least three replicates, were performed.
(§6) The DMR modulation index were generated against 4 markers across two distinct cell lines—the EGFR agonist EGF in A431 (EGF at 32 nM), and the EGFR agonist EGF in HT29 (EGF at 2 nM), the hERG activator mallotoxin (MTX) in HT29 (MTX at 16 micromlar), and the NTS1/NTS3 agonist neurotensin (NT) in HT29 (NT at 2 nM). The EGF responses in A431 cells include the early P-DMR event (˜5 min after EGF stimulation) and the subsequent N-DMR event (˜30 min after EGF stimulation). The EGF responses in HT29 include the early P-DMR event (˜5 min after EGF stimulation) and the late P-DMR event (˜50 min after EGF stimulation), whereas the mallotoxin response in HT29 is the P-DMR response 50 min after MTX stimulation, and the NT response in HT29 is the P-DMR 50 min after NT stimulation. In all cases, the amplitudes of respective DMR events were used as the basis to calculate the percentages of modulation by each inhibitor.

EGF response in HT29 = experiment: Epic label-free DMR biosensor cellular assay, EGF marker in HT29; assay type: cell-based, human
Protocol: as §1, §2, §3, §4, §5, §6

[2] = tested on: mallotoxin response in HT29; experiment: Epic label-free DMR biosensor cellular assay, hERG activator mallotoxin marker in HT29
Protocol: HT29 expresses VEGFR1 (Flt1 receptor), but not other VEGF receptors.
as §1
Cells were typically grown using ˜1 to 2×10^4 cells per well at passage 3 to 15 suspended in 50 μl of the corresponding culture medium in the biosensor microplate, and were cultured at 37° C. under air/5% CO2 for ˜1 day. Except for A431 which underwent one day culture followed by one starvation in serum free medium, all other cells were directly assayed without starvation.
as §3
For biosensor cellular assays, molecule solutions were made by diluting the stored concentrated solutions with the HBSS (1× Hanks balanced salt solution, plus 20 mM Hepes, pH 7.1), and transferred into a 384well polypropylene molecule storage plate to prepare a molecule source plate. Both molecule and marker source plates were made separately when a two-step assay was performed. In parallel, the cells were washed twice with the HBSS and maintained in 30 μl of the HBSS to prepare a cell assay plate. Both the cell assay plate and the molecule and marker source plate(s) were then incubated in the hotel of the reader system. After ˜1 hr of incubation the baseline wavelengths of all biosensors in the cell assay microplate were recorded and normalized to zero. Afterwards, a 2 to 10 minute continuous recording was carried out to establish a baseline, and to ensure that the cells reached a steady state. Cellular responses were then triggered by pipetting 10 μl of the marker solutions into the cell assay plate using the on-board liquid handler.
as §4, §5, §6

NT response in HT29 = experiment: Epic label-free DMR biosensor cellular assay, neurotensin marker in HT29; assay type: cell-based, human
Protocol: The NTS1 natural agonist neurotensin is known to activate the endogenous NTS1/NTS3 heterodimers in HT29 cells. […] Thus, neurotensin was chosen as an indirect marker for identifying potential EGFR inhibitors.
as §1, §2, §3, §4, §5, §6

VEGFR2 (KDR) = biological target: T1, VEGFR2 (KDR) (Homo sapiens, UniProt P35968); experiment: LanthaScreen TR-FRET kinase assay, VEGFR2 (KDR); assay type: biochemical; settings: for inhibition of FRET signal of VEGFR2 tyrosine kinase: compounds at 25 micromolar, FIG. 3
T1 construct: purchased Invitrogen
Protocol: (§7) LanthaScreen TR-FRET kinase assay reagents and the recombinant EGFR, VEGFR1 (FLT1), VEGFR2 (KDR) were purchased from Invitrogen. Known kinase inhibitors were used as positive controls.
(§8) Each EGFR reaction contains 51 ng/ml kinase, 2.4 μM ATP and 0.2 μM substrate. […] Each VEGFR2 (KDR) reaction contains 4 ng/ml kinase, 13 μM ATP and 0.2 μM substrate. Kinase reactions are allowed to proceed for 1 hour at room temperature before a 10 μl preparation of EDTA (20 mM) and Tb-labeled antibody (4 nM) in TR-FRET dilution buffer are added. The final concentration of antibody in the assay well is 2 nM, and the final concentration of EDTA is 10 mM. The plate is allowed to incubate at room temperature for at least 30 minutes before being read on a Tecan SafireII plate reader configured for LanthaScreen™ TR-FRET (Excitation at 340 nm, emission at 495 nm and 520 nm). The final readout is the emission ratio 520 nm/495 nm. Each data point is the average of 4 replicates.

EGFR [3] = biological target: T2, EGFR (Homo sapiens, UniProt P00533); experiment: LanthaScreen TR-FRET kinase assay, EGFR; assay type: biochemical; design: purchased Invitrogen; settings: compounds at 25 micromolar; FIG. 1
VEGFR1 (FLT1) = biological target: T3, VEGFR1 (FLT1) (Homo sapiens, UniProt P17948); experiment: LanthaScreen TR-FRET kinase assay, VEGFR1 (FLT1); assay type: biochemical
T3 construct: purchased Invitrogen
Protocol: as §7, §8

EGFR [4] = biological target: T2, EGFR; settings: known inhibitors; cited from earlier work
HT29 cells = settings: up to 100 nM; un-starved HT29 cells; data not shown
[5] = compounds at 25 micromolar, FIG. 2

T3 sequence (P17948 27-1338): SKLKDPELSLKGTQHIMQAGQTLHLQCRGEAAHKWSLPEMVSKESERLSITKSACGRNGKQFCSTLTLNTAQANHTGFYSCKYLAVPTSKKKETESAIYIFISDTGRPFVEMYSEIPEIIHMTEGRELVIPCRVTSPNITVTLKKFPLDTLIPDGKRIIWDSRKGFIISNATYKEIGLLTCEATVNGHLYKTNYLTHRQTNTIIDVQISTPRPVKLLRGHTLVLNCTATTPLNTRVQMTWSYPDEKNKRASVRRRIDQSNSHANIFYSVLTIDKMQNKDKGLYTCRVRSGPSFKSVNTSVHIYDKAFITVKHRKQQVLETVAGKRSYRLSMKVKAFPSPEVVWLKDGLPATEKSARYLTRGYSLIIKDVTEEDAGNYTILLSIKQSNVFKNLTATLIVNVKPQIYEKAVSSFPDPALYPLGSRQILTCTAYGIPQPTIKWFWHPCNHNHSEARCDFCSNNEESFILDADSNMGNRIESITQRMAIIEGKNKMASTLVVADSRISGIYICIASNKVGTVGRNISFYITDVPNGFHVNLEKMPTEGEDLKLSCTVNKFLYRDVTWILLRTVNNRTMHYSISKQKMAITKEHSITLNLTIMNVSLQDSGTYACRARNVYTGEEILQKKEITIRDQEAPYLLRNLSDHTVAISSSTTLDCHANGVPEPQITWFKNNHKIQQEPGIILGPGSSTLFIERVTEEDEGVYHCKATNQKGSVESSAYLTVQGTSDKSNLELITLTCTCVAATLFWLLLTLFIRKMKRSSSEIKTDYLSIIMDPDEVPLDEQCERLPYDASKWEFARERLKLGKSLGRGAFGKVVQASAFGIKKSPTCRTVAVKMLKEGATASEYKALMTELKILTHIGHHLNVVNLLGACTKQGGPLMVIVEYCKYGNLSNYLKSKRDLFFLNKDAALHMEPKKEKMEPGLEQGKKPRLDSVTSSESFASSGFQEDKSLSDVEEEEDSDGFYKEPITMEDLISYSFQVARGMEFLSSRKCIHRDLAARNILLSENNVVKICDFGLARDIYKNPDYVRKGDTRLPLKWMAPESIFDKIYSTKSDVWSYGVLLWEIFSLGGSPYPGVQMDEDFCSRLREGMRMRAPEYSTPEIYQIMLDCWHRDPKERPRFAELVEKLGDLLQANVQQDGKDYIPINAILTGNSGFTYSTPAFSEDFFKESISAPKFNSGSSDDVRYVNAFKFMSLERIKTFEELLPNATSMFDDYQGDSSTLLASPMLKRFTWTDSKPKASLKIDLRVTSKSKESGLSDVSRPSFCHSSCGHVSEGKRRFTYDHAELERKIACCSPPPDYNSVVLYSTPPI
T1 sequence (P35968 20-1356): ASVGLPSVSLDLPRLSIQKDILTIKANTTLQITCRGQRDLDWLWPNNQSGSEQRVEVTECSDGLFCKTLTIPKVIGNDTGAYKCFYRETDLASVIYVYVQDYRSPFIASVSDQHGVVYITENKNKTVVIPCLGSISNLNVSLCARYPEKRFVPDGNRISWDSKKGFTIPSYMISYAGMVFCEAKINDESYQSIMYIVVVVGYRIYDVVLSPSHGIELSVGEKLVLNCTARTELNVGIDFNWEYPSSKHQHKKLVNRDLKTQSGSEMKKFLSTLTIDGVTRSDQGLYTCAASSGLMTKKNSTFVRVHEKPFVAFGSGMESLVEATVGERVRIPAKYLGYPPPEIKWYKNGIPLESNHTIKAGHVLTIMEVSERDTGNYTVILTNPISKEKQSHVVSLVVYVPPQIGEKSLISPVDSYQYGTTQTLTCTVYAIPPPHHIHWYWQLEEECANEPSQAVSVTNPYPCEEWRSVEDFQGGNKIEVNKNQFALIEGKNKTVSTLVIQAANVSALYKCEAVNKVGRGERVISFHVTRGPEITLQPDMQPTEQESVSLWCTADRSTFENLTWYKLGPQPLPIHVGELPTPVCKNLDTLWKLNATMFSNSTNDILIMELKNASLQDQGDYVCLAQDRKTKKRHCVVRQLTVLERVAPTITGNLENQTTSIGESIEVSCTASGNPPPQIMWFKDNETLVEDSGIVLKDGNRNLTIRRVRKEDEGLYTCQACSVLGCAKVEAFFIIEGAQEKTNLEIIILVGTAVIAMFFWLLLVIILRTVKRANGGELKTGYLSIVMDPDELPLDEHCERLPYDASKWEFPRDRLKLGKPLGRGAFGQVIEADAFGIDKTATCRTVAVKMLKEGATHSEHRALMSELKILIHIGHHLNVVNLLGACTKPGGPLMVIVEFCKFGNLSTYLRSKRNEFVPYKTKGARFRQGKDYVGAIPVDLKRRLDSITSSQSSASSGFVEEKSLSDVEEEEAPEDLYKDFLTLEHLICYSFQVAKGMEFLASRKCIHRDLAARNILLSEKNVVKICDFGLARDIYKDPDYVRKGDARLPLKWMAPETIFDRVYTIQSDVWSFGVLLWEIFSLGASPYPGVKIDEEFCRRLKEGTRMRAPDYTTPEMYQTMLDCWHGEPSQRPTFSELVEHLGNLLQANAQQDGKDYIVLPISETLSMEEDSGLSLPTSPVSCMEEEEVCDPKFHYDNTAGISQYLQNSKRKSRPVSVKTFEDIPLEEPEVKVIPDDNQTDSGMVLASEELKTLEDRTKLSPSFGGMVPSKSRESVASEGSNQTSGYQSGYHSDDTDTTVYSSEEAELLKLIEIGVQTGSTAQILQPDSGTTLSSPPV
T2 sequence (P00533 25-1210): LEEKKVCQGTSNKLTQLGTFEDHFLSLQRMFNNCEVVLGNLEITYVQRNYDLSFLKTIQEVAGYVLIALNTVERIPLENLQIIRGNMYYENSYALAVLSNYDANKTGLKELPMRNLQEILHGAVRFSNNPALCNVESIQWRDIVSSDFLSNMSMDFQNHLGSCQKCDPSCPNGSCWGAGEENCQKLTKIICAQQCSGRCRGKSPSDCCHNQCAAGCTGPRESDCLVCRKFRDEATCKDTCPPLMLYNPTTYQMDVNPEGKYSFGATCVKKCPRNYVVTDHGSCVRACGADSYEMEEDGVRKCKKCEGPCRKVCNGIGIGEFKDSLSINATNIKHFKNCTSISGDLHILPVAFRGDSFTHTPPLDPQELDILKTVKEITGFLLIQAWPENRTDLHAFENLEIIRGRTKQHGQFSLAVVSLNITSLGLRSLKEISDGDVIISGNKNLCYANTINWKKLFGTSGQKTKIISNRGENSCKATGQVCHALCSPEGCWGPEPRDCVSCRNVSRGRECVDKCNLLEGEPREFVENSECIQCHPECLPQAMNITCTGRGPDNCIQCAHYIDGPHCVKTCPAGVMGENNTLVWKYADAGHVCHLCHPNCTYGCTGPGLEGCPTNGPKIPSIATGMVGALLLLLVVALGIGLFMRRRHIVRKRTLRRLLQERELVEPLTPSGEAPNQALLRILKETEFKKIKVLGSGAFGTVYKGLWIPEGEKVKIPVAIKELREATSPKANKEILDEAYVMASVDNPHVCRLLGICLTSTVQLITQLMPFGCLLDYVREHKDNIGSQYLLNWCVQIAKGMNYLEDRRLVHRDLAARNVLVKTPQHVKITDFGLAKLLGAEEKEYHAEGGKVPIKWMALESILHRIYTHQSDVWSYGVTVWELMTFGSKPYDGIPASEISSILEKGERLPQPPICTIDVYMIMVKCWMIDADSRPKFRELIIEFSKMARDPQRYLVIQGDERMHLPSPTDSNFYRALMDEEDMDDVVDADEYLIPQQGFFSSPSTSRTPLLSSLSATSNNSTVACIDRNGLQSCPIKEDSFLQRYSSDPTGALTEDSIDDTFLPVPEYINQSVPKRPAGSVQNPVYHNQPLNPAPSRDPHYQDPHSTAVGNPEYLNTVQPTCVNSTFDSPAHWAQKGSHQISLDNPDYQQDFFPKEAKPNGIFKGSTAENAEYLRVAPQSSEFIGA

6H-Indeno[1,2-e]tetrazolo[1,5-b][1,2,4]triazin-6-one & 10H-Indeno[2,1-e]tetrazolo[1,5-b][1,2,4]triazin-10-one [dual PDK1/AKT/Flt1 pathway inhibitor]
effect on early P-DMR event in the EGF response in A431 ([1]; EGF at 32 nM, early P-DMR): almost completely attenuated | effect on early P-DMR event of the EGF response in HT29 (EGF response in HT29; EGF at 2 nM, early P-DMR): almost completely attenuated | effect on late P-DMR event of the EGF response in HT29 (EGF response in HT29; EGF at 2 nM, late P-DMR): almost completely attenuated

COc1cc2ncnc(Nc3cccc(Cl)c3)c2cc1OC [AG1478]
impact on DMR signal of MTX in HT29 ([2]; MTX at 16 micromolar): partial inhibition | impact on DMR signal of NT in HT29 (NT response in HT29; NT at 2 nM): partial inhibition

CCCCCCc1csc2cc(C(=O)O)sc12 [Compound H, 6-hexyl-thieno[3,2-b]thiophene-2-carboxylic acid]
inhibition of FRET signal of VEGFR2 tyrosine kinase (VEGFR2 (KDR)): less potent than the others | inhibition of FRET signal of EGFR tyrosine kinase (EGFR [3]): less potent than the others | inhibition of FRET signal of VEGFR1 tyrosine kinase (VEGFR1 (FLT1); [5]): less potent than the others

CCCCCCc1csc2c(CCCCCC)c(C(=O)O)sc12 [Compound J, 3,6-Dihexyl-thieno[3,2-b]thiophene-2-carboxylic acid]
inhibition of FRET signal of VEGFR2 tyrosine kinase (VEGFR2 (KDR)): less potent than the others | inhibition of FRET signal of EGFR tyrosine kinase (EGFR [3]): less potent than the others | inhibition of FRET signal of VEGFR1 tyrosine kinase (VEGFR1 (FLT1); [5]): less potent than the others

Cc1csc2c1sc1cc(C(=O)O)sc12 [Compound K, 5-methyldithieno[3,2-b:2′3′-d] thiophene-2-carboxyl acid]
inhibition of FRET signal of VEGFR2 tyrosine kinase (VEGFR2 (KDR)): less potent than the others | inhibition of FRET signal of EGFR tyrosine kinase (EGFR [3]): less potent than the others | inhibition of FRET signal of VEGFR1 tyrosine kinase (VEGFR1 (FLT1); [5]): less potent than the others

C[C@@H](N)[C@H]1CC[C@H](C(=O)Nc2ccncc2)CC1 [Compound Y-27632, reference compound]
attenuation of FRET signal for VEGFR2 tyrosine kinase (VEGFR2 (KDR); concentration not given): significantly attenuated

c1ccc(-c2cnc(Nc3ccc(OCCN4CCCC4)cc3)s2)cc1 [Flt3 inhibitor III, (5-Phenyl-thiazol-2-yl)-(4-(2-pyrrolidin-1-yl-ethoxy)-phenyl)-amine]
impact on DMR signal of EGF in A431 ([1]; EGF at 32 nM): little impact | impact on DMR signal of MTX in HT29 ([2]; MTX at 16 micromolar): little impact | impact on DMR signal of EGF in HT29 (EGF response in HT29; EGF at 2 nM): little impact | impact on DMR signal of NT in HT29 (NT response in HT29; NT at 2 nM): little impact

CCCCCCCCCCc1csc2c(CCCCCC)c(C(=O)O)sc12 [I]
modulation of EGF response in A431, N-DMR ([1]; EGF at 32 nM, N-DMR ~30 min after EGF stimulation): −65% | modulation of EGF response in A431, early P-DMR ([1]; EGF at 32 nM, early P-DMR ~5 min after EGF stimulation): −60% | modulation index score, EGF in A431 N-DMR ([1]; score = modulation percentage/10, 2nd coordinate): −6.5 | modulation of MTX response in HT29, P-DMR ([2]; MTX at 16 micromolar, P-DMR 50 min after MTX stimulation): −60% | modulation index score, MTX in HT29 P-DMR ([2]; score = modulation percentage/10, 5th coordinate): −6 | modulation of EGF response in HT29, early P-DMR (EGF response in HT29; EGF at 2 nM, early P-DMR ~5 min after EGF stimulation): −70% | modulation of EGF response in HT29, late P-DMR (EGF response in HT29; EGF at 2 nM, late P-DMR ~50 min after EGF stimulation): −100% | modulation index score, EGF in HT29 early P-DMR (EGF response in HT29; score = modulation percentage/10, 3rd coordinate): −7 | modulation index score, EGF in HT29 late P-DMR (EGF response in HT29; score = modulation percentage/10, 4th coordinate): −10 | modulation of NT response in HT29, P-DMR (NT response in HT29; NT at 2 nM, P-DMR 50 min after NT stimulation): −106% | modulation index score, NT in HT29 P-DMR (NT response in HT29; score = modulation percentage/10, 6th coordinate): −10.6

O=C(O)c1cc(N(Cc2ccccc2O)Cc2cc(O)ccc2O)ccc1O [Lavendustin A]
strength as EGFR inhibitor (EGFR [4]): weak EGFR inhibitor

CCOC(=O)c1c(C)[nH]c(/C=C2\C(=O)Nc3ccccc32)c1C [VEGFR2 tyrosine kinase inhibitor I, (Z)-3-[(2,4-Dimethyl-3-(ethoxycarbonyl)pyrrol-5-yl)methylidenyl]indolin-2-one]
impact on DMR signal of EGF in A431 ([1]; EGF at 32 nM): little impact | impact on DMR signal of MTX in HT29 ([2]; MTX at 16 micromolar): little impact | impact on DMR signal of EGF in HT29 (EGF response in HT29; EGF at 2 nM): little impact | impact on DMR signal of NT in HT29 (NT response in HT29; NT at 2 nM): little impact

O=C1Nc2ccc(Br)cc2/C1=C/c1cc2c([nH]1)CCCC2 [VEGFR2 tyrosine kinase inhibitor II, (Z)-5-Bromo-3-(4,5,6,7-tetrahydro-1H-indol-2-ylmethylene)-1,3-dihydroindol-2-one]
impact on DMR signal of EGF in A431 ([1]; EGF at 32 nM): little impact | impact on DMR signal of MTX in HT29 ([2]; MTX at 16 micromolar): little impact | impact on DMR signal of EGF in HT29 (EGF response in HT29; EGF at 2 nM): little impact | impact on DMR signal of NT in HT29 (NT response in HT29; NT at 2 nM): little impact

CN[C@@H]1C[C@H]2O[C@@](C)([C@@H]1OC)n1c3ccccc3c3c4c(c5c6ccccc6n2c5c31)C(=O)NC4 [staurosporine, reference compound]
inhibition of FRET signal of VEGFR1 tyrosine kinase (VEGFR1 (FLT1); at 10 micromolar): completely inhibited

VEGF
DMR signal triggered (HT29 cells): very small DMR signal
